Here are results for 21 molecules from patent US5583000A, “Protease-binding compounds and methods of use” (priority 1993, dated 1996).

Converted amounts (≈) assume the structure as drawn. Like-named read-outs stand apart in the source and are kept apart here. Where only a bound is given, the exact number is not on record here.

One series has as its target HIV-1 protease (Human immunodeficiency virus type 1 group M subtype B, UniProt P03369). Put plainly: biochemical. Conditions: for IC50: HIV-1 Protease IC50 (μM) 1M NaCl.
A short description of series [1]: in vitro.
Procedure: Cytotoxicity. The MTT assay was performed as follows:
The cells were seeded in 96-well plates and grown overnight to near 50% confluency. A serial dilution (1 to 500 μM) of each compound in culture media was prepared and 250 μL/well was added in duplicate. The cells were allowed to grow for various periods of time (6, 24, 48 hours) and any precipitation of compounds in the wells was noted. The assay was performed by removing 200 μL of the culture media and adding 25 μL of MTT solution (2 mg/mL in phosphate buffered saline (PBS)). This was incubated for 4 hours at 37° C. and live cells began to turn purple while the solution remained yellow. To quench the reaction and solubilize the reaction product, 160 μL of acidified isopropanol (4 mL 1N HCl for 96 mL alcohol) were added and the resulting mixture was mixed vigorously to dissolve purple crystals. Absorbance was determined at 550-570 nm on an ELISA plate reader within 0.5-2 hours. […] To obtain the LD50 values for each compound, the concentration at which the absorbance is haft of that for the untreated cells was determined.
The next series concerns the target HIV-1 PR Q7K (Human immunodeficiency virus type 1 group M subtype B, UniProt P03369, Q497K). Format: biochemical. Conditions: read-out: kinact (μM) HIV-1; inhibitor concentration resulting in half-maximal inactivation; pH 8.0, 25° C.
The target of the next series is T1, HIV-2 PR (Human immunodeficiency virus type 2 subtype A, UniProt P04584).
T1 construct: HIV-2 PR (at a final concentration of 30 μg/mL); made in house
The series is described as follows: biochemical. Conditions: for KI (inactivation): read-out: kinact (μM) HIV-2. It counts as biochemical.

Series [2] can be described thus: in vitro. The following applies: african green monkey, cos-7 cells.
Procedure: MTT cell viability assay. This is a quantitative colorimetric assay for mammalian cell survival and proliferation. Cells were seeded in 96 well plates and grown to near 50% confluency. A serial dilution (1 to 500 μM) of each compound was then prepared in culture media and added (250 μL/well) in duplicate. All culture media was adjusted to a final concentration of 1.0% DMSO (volume basis). The cells were allowed to grow for either 4 hours or 24 hours. The culture media were then removed, and the cells were washed with phosphate buffered saline (PBS) before 50 μL of MTT solution (1 mg/mL in PBS) was added. After incubating for 4 hours at 37° C., the reaction was quenched by adding 160 μL of acidified isopropanol and mixing to dissolve purple crystals. The absorbance was determined within 30 minutes at 570 nm on an ELISA plate reader.
The cytotoxic effect of the inhibitors was determined using the MTT stain viability assay.
A further series has as its target T2, HIV-2 protease (Human immunodeficiency virus type 2 subtype A, UniProt P04584).
T2 construct: the coding region of the 99-amino acid protease; made in house; host or cells: Saccharomyces cerevisiae strain AB110, plasmid pHIV2PR115
Put plainly: biochemical. The following applies: 1M NaCl. How it is done:
The decapeptide was synthesized by conventional solid-state methods. Reactions were carried out and fractionated by HPLC. Conversion of the decapeptide to the two pentapeptides was quantitated by integration of the peak areas and comparison to product standard curves.
Enzymatic Inhibition. […] Each data point was done in triplicate and initial enzyme rates were fit to the Michaelis-Menten equation using a nonlinear regression program ("Enzfitter" from Biosoft).

[3] abbreviates: inhibitor concentration resulting in half-maximal inactivation, pH 8.0, 25° C.
[4] abbreviates: pH 8, maximum inactivation rate, read-out: Vinact (min^-1 × 10^3) HIV-2 (converted).

T2 sequence (P04584 514-612 limits assumed): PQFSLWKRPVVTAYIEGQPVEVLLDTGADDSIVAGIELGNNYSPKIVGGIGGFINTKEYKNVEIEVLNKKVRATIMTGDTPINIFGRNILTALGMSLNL
T1 sequence (P04584 514-612 limits assumed): as above

For the molecule `OC(CC#CC1(O)CCN(Cc2ccccc2)CC1)c1ccccc1` (stereo not shown) [UCSF72], the IC50 against HIV-1 protease (1M NaCl) was found to be 750 µM. The molecule also came in with a CC50 at 6 h in the series “in vitro [1]” of 260 µM. The solubility in “Solubility” was over 500 µM.

For the molecule `O=C(/C=C/CN1CCC(O)(c2ccc(Cl)cc2)CC1)c1ccc(F)cc1` [UCSF191], the IC50 on HIV-1 protease came to 80 µM. Besides, the KI (inactivation) at HIV-1 PR Q7K worked out at 57.2 ± 7.1 µM; at HIV-2 PR (hiv-2 pr, pH 8) it was 156 ± 2.3 µM. In addition, the kinact at HIV-2 PR (pH 8, read-out: Vinact (min^-1 × 10^3) HIV-2) was 0.0121 min⁻¹. Further, in “in vitro [1]”, the CC50 at 6 h is 22 µM. The solubility in “physchem” was over 150 µM.

`OC1(CCCCc2ccccc2)CCC(O)(c2ccc(Cl)cc2)CC1` (stereo not shown) [UCSF54]: the midpoint of inhibition at HIV-1 protease (1M NaCl), the IC50, lay at 2500 µM. The “HIV-1 Protease Therapeutic Index (LD50 /IC50)” value at HIV-1 protease (LD50/IC50) is under 0.08. In addition, the CC50 at 6 h in the series “in vitro [1]” was 190 µM. The molecule also displayed a solubility in the series “Solubility” of over 500 µM.

Turning to `O=C(C#CCN1CCC(O)(c2ccc(Cl)cc2)CC1)c1ccccc1` [UCSF86, 4-(4'-(4"-chlorophenyl)-4'-hydroxypiperidinyl)-1-phenylbut-2-yn-1-one], half-maximal inhibition on HIV-1 protease (IC50) required 20 µM. Besides, on HIV-1 PR Q7K, the KI (inactivation) was found to be 62.4 ± 3.1 µM. The KI (inactivation) at HIV-2 PR (setting [3]) came out at 131 ± 4.4 µM. The kinact at HIV-2 PR (setting [4]) is 0.0076 min⁻¹. The molecule also had a CC50 at 6 h in “in vitro [1]” of 15 to 20 µM. This molecule returned a solubility in “physchem” of over 60 µM. Further, in “in vitro [2]”, the CC50 at 4 h is 15 µM and the CC50 at 24 h was under 10 µM.

Regarding `O=C(c1ccc(N2CCC(O)(c3ccc(Cl)cc3)CC2)cc1)C1CC1` [UCSF81], the IC50 on HIV-1 protease (1M NaCl) was found to be 200 µM; against HIV-2 protease, 1000 µM. The “HIV-1 Protease Therapeutic Index (LD50 /IC50)” value on HIV-1 protease (LD50/IC50) is listed as over 1.25. The CC50 at 6 h in the series “in vitro [1]” is over 250 µM. The solubility in the series “Solubility” is over 250 µM.

For `OC1(C2(c3ccc(Cl)cc3)SCCCS2)CCN(CCCC2(c3ccc(F)cc3)SCCS2)CC1` [UCSF75], the values for the IC50 at HIV-1 protease (1M NaCl) and at HIV-2 protease were 50 µM and 13 µM, respectively. In the series “in vitro [1]”, this molecule showed a CC50 at 6 h of 200 µM. Further, the solubility in “Solubility” was under 50 µM.

Turning to `C=CCCCC1(C(=O)c2ccc(N3CCC(O)(c4ccc(Cl)cc4)CC3)cc2)CC1` [UCSF82], the IC50 at HIV-1 protease (1M NaCl) came out at 100 µM; against HIV-2 protease it was 800 µM. In the series “in vitro [1]”, this molecule registered a CC50 at 6 h of over 250 µM. The same molecule showed a solubility in “Solubility” of under 100 µM.

For the molecule `O=C(c1ccc(N2CCC(O)(c3ccc(Cl)cc3)CC2)cc1)C1(CC#CCO)CC1` [UCSF83], the half-maximal inhibitory concentration (IC50) on HIV-1 protease (1M NaCl) stood at 15 µM; at HIV-2 protease, 78 µM. In the series “in vitro [1]”, the CC50 at 6 h is over 250 µM. The molecule also returned a solubility in “Solubility” of over 250 µM.

At HIV-1 protease, `O=C(C=C(CN1CCC(O)(c2ccc(Cl)cc2)CC1)SCCO)c1ccccc1` [UCSF178, 4-(4'-(4"-chlorophenyl)-4'-hydroxypiperidinyl)-3-(2'-hydroxyethylthio)-1-phenyl-2-buten-1-one] gave a 50% inhibitory concentration (IC50) of 140 µM. For the same molecule, the KI (inactivation) at HIV-1 PR Q7K came out at 232 ± 10.8 µM; on HIV-2 PR (setting [3]), 120 ± 9.9 µM. Also, at HIV-2 PR (setting [4]), the kinact was 0.0046 min⁻¹. Besides, in “in vitro [1]”, the CC50 at 6 h was over 250 µM. Also, in the series “physchem”, the solubility stood at 150 µM (≈ 64.8 µg/mL). The molecule also displayed a CC50 at 4 h in the series “in vitro [2]” of over 250 µM. The same molecule came in with a CC50 at 24 h in the series “in vitro [2]” of 75 µM.

For `OC(CCCC1(O)CCN(Cc2ccccc2)CC1)c1ccccc1` (stereo not shown) [UCSF77], the half-maximal inhibitory concentration (IC50) was 2500 µM at HIV-1 protease (1M NaCl) and 500 µM on HIV-2 protease. The same molecule registered a CC50 at 6 h in “in vitro [1]” of 500 µM. Also, the solubility in the series “Solubility” is over 500 µM.

In turn, `OC(CC=CC1(O)CCN(Cc2ccccc2)CC1)c1ccccc1` (stereo not shown) [UCSF76] displayed an IC50 at HIV-1 protease (1M NaCl) of 1650 µM. In addition, the CC50 at 6 h in “in vitro [1]” came to 440 µM. Moreover, the solubility in “Solubility” is over 500 µM.

For the molecule `O=C(C#CCN1CCC(O)(c2ccc(Cl)cc2)CC1)c1ccc(-c2ccccc2)cc1` [UCSF231, 4-(4'-(4"-chlorophenyl)-4'-hydroxypiperidinyl)-1-p-biphenylbut-2-yn-1-one], on HIV-1 protease, the “HIV-1 Protease Therapeutic Index (LD50 /IC50)” value is recorded as under 0.1 and the half-inhibitory concentration (IC50) is 100 µM. On HIV-1 PR Q7K, the KI (inactivation) came out at 385 ± 58 µM. In “in vitro [1]”, this molecule came in with a CC50 at 6 h of 10 µM. Further, in “in vitro [2]”, the CC50 at 4 h is under 5 µM and the CC50 at 24 h is under 5 µM.

Consider `O=C(CCCC1(O)CCC(O)(c2ccc(Cl)cc2)CC1)c1ccc(F)cc1` (stereo not shown) [UCSF65, 4-(4'-p-fluorophenyl-4'-butanone)-1-p-chlorophenyl-1,4-cyclohexanediol], for which the CC50 at 6 h in the series “in vitro [1]” was found to be 250 µM. The same molecule yielded a solubility in the series “Solubility” of under 100 µM.

Take `Cc1ccc(C(=O)CCC(c2ccccc2)N2CCC(O)(c3ccc(Cl)cc3)CC2)cc1` (stereo not shown) [UCSF44, 4-[4-(p-chlorophenyl)-4-hydroxypiperidinyl]-4-phenyl-4'-methylbutyrophenone]: at HIV-1 protease, the “HIV-1 Protease Therapeutic Index (LD50 /IC50)” value is listed as 5.7(0.7) and the IC50 was 35 µM. The same molecule displayed an IC50 against HIV-2 protease of 43 µM. This molecule had a CC50 at 6 h in “in vitro [1]” of 200 µM. The molecule further gave a solubility in the series “physchem” of under 25 µM.

As for `COCCN(CCN1CCC(O)(c2ccc(Cl)cc2)CC1)Cc1ccccc1` [UCSF58, 2-[4-(4-chlorophenyl)-4-hydroxypiperidinyl]-N-benzyl-N-(2-methoxyethyl)ethylamine], on HIV-1 protease, the “HIV-1 Protease Therapeutic Index (LD50 /IC50)” value is given as under 0.3 and half-maximal inhibition (IC50) required 300 µM. At HIV-2 protease, the half-maximal inhibitory concentration (IC50) amounted to 290 µM. In addition, in “in vitro [1]”, the CC50 at 4 h was 110 µM. Moreover, in “physchem”, the solubility is over 500 µM.

For the molecule `C[N+]1(CCCC(=O)c2ccc(F)cc2)CCC(O)(c2ccc(Cl)cc2)CC1` (stereo not shown) [UCSF5, 4-[4-(p-chlorophenyl)-4-hydroxy-N-methylpiperidinyl]-4'-fluorobutyrophenone], on HIV-1 protease, the “HIV-1 Protease Therapeutic Index (LD50 /IC50)” value is over 6.3. Moreover, the half-maximal inhibitory concentration (IC50) on HIV-1 protease is 79 µM; against HIV-2 protease it was over 1000 µM. The same molecule came in with a CC50 at 6 h in the series “in vitro [1]” of over 500 µM. The molecule also had a solubility in the series “physchem” of over 250 µM.

Regarding `OC1(c2ccc(Cl)cc2)CCN(CCCC2(c3ccc(F)cc3)SCc3ccc(cc3)CS2)CC1` [UCSF22, (1,4-benzenedimethanethioacetal)-4-[4-(p-chlorophenyl)-4-hydroxypiperidinyl]-4'-fluorobutyrophenone], on HIV-1 protease, the “HIV-1 Protease Therapeutic Index (LD50 /IC50)” value is on record as 5(0.5) and the IC50 was 100 µM. The molecule further displayed a half-inhibitory concentration (IC50) on HIV-2 protease of 54 µM. Also, the CC50 at 6 h in the series “in vitro [1]” is over 500 µM. The same molecule had a solubility in the series “physchem” of under 50 µM.

With `O=C(CCCN1CCC(O)(c2ccccc2)CC1)c1ccc(F)cc1` [UCSF31, 4-(4-phenyl-4-hydroxypiperidinyl)-4'-fluorobutyrophenone], on HIV-1 protease, the “HIV-1 Protease Therapeutic Index (LD50 /IC50)” value was over 1.1 and half-maximal inhibition (IC50) was put at 230 µM. This molecule also gave an IC50 against HIV-2 protease of 495 µM. In the series “in vitro [1]”, this molecule came in with a CC50 at 6 h of over 250 µM. In addition, the solubility in “physchem” was over 250 µM.

The molecule `C=C(CCCC1(O)CCC(O)(c2ccc(Cl)cc2)CC1)c1ccccc1` (stereo not shown) [UCSF41, 4-(4'-phenyl-4-pentenyl)-1-(p-chlorophenyl)-1,4-cyclohexanediol] gave an IC50 against HIV-1 protease (1M NaCl) of 160 µM. The “HIV-1 Protease Therapeutic Index (LD50 /IC50)” value on HIV-1 protease (LD50/IC50) amounted to 0.6. Besides, the CC50 at 6 h in “in vitro [1]” came to 90 µM. For the same molecule, the solubility in the series “Solubility” is over 500 µM.

Turning to `OC1(c2ccccc2)CCN(CCCC2(c3ccccc3)OCCO2)CC1` [UCSF30, (1,2-ethyloxoacetal)-4-(4-phenyl-4-hydroxypiperidinyl)butyrophenone], at HIV-1 protease, the “HIV-1 Protease Therapeutic Index (LD50 /IC50)” value is given as 1 and half-maximal inhibition (IC50) required 265 µM. At HIV-2 protease, the 50% inhibitory concentration (IC50) was 500 µM. In “in vitro [1]”, the CC50 at 6 h was over 250 µM. In “physchem”, this molecule displayed a solubility of over 250 µM.

`O=C(CCCN1CCC(O)(c2ccccc2)CC1)c1ccccc1` [UCSF34, 4-(4-phenyl-4-hydroxypiperidinyl)butyrophenone]: at HIV-1 protease, the “HIV-1 Protease Therapeutic Index (LD50 /IC50)” value was over 1.25 and inhibition was half-maximal at 400 µM (IC50). The molecule further returned a half-inhibitory concentration (IC50) on HIV-2 protease of 288 µM. This molecule also had a CC50 at 6 h in the series “in vitro [1]” of over 500 µM. For the same molecule, the solubility in the series “physchem” is over 500 µM.

One may read the IC50 as the concentration that gives 50% inhibition. The low end stands for greater potency in that assay, the high end for weaker potency in that assay. Broadly, the solubility is how much of the substance goes into solution per volume. High values mean a readily soluble substance, low ones a poorly soluble substance.
